Some results are limits rather than exact numbers.

Assay type in all cases: biochemical
The target in one experiment is CDK6/Cyclin D3 (Homo sapiens (Human), UniProt Q00534). In words: CDK6/Cyclin D3 kinase assay (Nanosyn, Caliper microfluidic). The conditions noted are these: 12-point dose-response, singlicate, at Km for ATP; ATP 300 μM; 3 hr. The procedure:
(§1) Selected compounds disclosed herein were tested in kinase assays by Nanosyn (Santa Clara, CA) to determine their inhibitory effect on these CDKs. The assays were performed using microfluidic kinase detection technology (Caliper Assay Platform). The compounds were tested in 12-point dose-response format in singlicate at Km for ATP. Specifics of each assay are as described below:
CDK6/Cyclin D3: Enzyme concentration: 2 nM; ATP concentration: 300 μM; Incubation time: 3 hr.

The target of the next experiment is CDK7 (Homo sapiens (Human), UniProt P50613). In words: CDK7 kinase assay (Nanosyn, Caliper microfluidic). Particulars: 12-point dose-response, singlicate, at Km for ATP. The procedure:
(§2) Selected compounds disclosed herein were tested in kinase assays by Nanosyn (Santa Clara, CA) to determine their inhibitory effect on these CDKs. The assays were performed using microfluidic kinase detection technology (Caliper Assay Platform). The compounds were tested in 12-point dose-response format in singlicate at Km for ATP.

A further experiment has as its target CDK9/Cyclin T1 (Homo sapiens (Human), UniProt P50750). In words: CDK9/Cyclin T1 kinase assay (Nanosyn, Caliper microfluidic). Particulars: 12-point dose-response, singlicate, at Km for ATP; ATP 10 μM; 17 hr. The procedure: as §1
CDK9/Cyclin T1: Enzyme concentration: 5 nM; ATP concentration: 10 μM; Incubation time: 17 hr.

The target of the next experiment is CDK4/Cyclin D1 (Homo sapiens (Human), UniProt P11802). In words: CDK4/Cyclin D1 kinase assay (Nanosyn, Caliper microfluidic). The conditions noted are these: 12-point dose-response, singlicate, at Km for ATP; ATP 200 μM; 3 hr. On the procedure: as §1
CDK4/Cyclin D1, sequence (P11802 whole entry): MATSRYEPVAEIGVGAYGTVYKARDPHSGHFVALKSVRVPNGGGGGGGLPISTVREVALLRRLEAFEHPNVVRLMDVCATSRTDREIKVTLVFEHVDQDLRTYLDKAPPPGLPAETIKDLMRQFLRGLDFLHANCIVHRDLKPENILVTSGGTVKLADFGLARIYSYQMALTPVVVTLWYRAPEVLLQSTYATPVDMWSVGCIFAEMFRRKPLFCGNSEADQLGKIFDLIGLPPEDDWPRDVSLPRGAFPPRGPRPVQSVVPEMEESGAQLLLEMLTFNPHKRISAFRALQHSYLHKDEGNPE
CDK4/Cyclin D1, sequence (P24385 whole entry partner): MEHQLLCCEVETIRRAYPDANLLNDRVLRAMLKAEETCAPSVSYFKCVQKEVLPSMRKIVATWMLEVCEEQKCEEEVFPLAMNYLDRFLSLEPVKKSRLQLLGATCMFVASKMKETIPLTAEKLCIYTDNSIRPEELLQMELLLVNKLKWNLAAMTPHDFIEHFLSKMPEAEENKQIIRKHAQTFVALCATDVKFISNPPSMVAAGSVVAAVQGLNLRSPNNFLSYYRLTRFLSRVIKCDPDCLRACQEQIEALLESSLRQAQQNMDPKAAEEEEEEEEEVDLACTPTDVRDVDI
CDK4/Cyclin D1: Enzyme concentration: 1 nM; ATP concentration: 200 μM; Incubation time: 3 hr.

For a further experiment, the target named is CDK2/Cyclin A (Homo sapiens (Human), UniProt P24941). In words: CDK2/Cyclin A kinase assay (Nanosyn, Caliper microfluidic). The conditions noted are these: 12-point dose-response, singlicate, at Km for ATP; ATP 50 μM; 3 hr. On the procedure: as §1
CDK2/Cyclin A: Enzyme concentration: 0.1 nM; ATP concentration: 50 μM; Incubation time: 3 hr.

A further experiment has as its target CDK1/Cyclin B1 (Homo sapiens (Human), UniProt P06493). In words: CDK1/Cyclin B1 kinase assay (Nanosyn, Caliper microfluidic). The conditions noted are these: 12-point dose-response, singlicate, at Km for ATP; ATP 40 μM; 3 hr. The procedure: as §1
CDK1/Cyclin B1: Enzyme concentration: 0.08 nM; ATP concentration: 40 μM; Incubation time: 3 hr.

A further experiment addresses CDK2/Cyclin E (Homo sapiens (Human), UniProt P24941). The experiment in a line: CDK2/Cyclin E kinase assay (Nanosyn, Caliper microfluidic). The conditions noted are these: 12-point dose-response, singlicate, at Km for ATP; ATP 100 μM; 3 hr. The procedure:
as §1
CDK2/Cyclin E: Enzyme concentration: 0.15 nM; ATP concentration: 100 μM; Incubation time: 3 hr.

For a further experiment, the target named is CDK3-CYCLIN-E (Homo sapiens (Human), UniProt Q00526). The experiment in a line: CDK3-Cyclin-E kinase assay (Nanosyn, Caliper microfluidic). The conditions noted are these: 12-point dose-response, singlicate, at Km for ATP. On the procedure:
as §2

CDK7, sequence (P50613 whole entry): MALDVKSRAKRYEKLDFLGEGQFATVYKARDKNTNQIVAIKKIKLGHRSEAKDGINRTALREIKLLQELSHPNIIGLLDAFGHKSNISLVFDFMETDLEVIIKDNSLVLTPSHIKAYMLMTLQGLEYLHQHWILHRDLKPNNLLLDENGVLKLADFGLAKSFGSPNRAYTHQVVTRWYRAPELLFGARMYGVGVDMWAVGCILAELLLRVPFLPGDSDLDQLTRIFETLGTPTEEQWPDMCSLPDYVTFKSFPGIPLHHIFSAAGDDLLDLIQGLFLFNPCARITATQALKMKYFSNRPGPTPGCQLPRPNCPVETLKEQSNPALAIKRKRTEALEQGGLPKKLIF
CDK7, sequence (P51946 whole entry partner): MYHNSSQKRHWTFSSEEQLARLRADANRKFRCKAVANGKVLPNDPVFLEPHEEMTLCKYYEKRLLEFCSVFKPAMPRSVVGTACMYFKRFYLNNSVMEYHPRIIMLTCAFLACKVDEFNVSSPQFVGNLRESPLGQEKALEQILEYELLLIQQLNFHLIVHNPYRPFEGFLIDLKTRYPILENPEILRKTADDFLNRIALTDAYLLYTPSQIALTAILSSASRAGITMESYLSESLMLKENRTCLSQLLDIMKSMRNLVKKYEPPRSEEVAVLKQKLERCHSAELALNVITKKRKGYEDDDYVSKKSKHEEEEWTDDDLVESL
CDK7, sequence (P51948 whole entry partner): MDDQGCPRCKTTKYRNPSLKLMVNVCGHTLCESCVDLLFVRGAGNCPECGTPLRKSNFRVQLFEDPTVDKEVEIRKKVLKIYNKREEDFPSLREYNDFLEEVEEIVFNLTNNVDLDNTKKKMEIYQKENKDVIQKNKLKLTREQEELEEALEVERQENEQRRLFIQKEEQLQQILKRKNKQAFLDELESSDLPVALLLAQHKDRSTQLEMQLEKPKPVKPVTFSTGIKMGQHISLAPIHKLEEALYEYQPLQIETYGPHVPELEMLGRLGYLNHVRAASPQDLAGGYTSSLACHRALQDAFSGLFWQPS
CDK1/Cyclin B1, sequence (P06493 whole entry): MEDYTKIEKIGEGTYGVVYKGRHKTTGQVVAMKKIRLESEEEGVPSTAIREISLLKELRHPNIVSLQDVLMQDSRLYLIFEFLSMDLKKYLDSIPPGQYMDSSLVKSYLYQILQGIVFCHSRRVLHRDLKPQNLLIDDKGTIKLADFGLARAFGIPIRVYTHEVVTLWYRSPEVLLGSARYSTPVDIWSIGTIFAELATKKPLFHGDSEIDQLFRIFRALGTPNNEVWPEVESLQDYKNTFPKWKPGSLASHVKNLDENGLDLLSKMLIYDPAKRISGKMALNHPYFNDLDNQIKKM
CDK1/Cyclin B1, sequence (P14635 whole entry partner): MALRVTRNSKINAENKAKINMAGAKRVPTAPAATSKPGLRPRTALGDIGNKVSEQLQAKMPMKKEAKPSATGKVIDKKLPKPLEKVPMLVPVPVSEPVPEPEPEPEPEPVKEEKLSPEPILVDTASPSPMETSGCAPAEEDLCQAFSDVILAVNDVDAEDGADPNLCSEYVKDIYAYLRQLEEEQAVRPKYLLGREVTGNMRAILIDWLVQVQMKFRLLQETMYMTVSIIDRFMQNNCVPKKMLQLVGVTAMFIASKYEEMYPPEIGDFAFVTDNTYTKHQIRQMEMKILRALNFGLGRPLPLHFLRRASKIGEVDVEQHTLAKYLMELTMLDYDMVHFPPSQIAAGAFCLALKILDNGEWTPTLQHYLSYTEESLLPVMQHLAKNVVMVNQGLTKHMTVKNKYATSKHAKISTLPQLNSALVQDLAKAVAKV
CDK6/Cyclin D3, sequence (Q00534 whole entry): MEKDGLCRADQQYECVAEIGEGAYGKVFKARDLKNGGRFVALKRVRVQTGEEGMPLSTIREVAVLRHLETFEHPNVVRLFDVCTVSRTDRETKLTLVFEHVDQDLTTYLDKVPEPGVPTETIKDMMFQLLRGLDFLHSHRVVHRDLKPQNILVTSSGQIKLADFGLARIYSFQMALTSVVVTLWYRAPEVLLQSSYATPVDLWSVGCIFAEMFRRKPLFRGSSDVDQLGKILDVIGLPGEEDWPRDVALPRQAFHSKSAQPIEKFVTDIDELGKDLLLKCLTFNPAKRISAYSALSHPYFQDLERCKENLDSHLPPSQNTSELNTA
CDK6/Cyclin D3, sequence (P30281 whole entry partner): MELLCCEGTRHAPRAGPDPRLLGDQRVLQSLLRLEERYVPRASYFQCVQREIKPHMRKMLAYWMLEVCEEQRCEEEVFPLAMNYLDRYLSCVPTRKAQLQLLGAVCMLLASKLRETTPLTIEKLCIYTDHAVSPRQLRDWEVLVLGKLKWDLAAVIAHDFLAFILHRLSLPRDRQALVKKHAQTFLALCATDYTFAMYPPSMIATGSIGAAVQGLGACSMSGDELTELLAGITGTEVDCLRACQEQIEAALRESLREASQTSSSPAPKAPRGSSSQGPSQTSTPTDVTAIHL
CDK9/Cyclin T1, sequence (P50750 whole entry): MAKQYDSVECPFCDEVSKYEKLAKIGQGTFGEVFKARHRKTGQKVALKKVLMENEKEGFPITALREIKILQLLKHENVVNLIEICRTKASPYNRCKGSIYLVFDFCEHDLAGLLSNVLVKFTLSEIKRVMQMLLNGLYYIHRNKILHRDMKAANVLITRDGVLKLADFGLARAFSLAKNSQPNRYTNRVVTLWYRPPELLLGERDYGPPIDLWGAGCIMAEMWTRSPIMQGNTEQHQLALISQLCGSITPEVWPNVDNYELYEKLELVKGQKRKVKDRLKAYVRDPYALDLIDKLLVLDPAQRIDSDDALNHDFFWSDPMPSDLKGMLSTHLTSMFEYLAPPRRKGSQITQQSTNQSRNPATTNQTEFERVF
CDK9/Cyclin T1, sequence (O60563 whole entry partner): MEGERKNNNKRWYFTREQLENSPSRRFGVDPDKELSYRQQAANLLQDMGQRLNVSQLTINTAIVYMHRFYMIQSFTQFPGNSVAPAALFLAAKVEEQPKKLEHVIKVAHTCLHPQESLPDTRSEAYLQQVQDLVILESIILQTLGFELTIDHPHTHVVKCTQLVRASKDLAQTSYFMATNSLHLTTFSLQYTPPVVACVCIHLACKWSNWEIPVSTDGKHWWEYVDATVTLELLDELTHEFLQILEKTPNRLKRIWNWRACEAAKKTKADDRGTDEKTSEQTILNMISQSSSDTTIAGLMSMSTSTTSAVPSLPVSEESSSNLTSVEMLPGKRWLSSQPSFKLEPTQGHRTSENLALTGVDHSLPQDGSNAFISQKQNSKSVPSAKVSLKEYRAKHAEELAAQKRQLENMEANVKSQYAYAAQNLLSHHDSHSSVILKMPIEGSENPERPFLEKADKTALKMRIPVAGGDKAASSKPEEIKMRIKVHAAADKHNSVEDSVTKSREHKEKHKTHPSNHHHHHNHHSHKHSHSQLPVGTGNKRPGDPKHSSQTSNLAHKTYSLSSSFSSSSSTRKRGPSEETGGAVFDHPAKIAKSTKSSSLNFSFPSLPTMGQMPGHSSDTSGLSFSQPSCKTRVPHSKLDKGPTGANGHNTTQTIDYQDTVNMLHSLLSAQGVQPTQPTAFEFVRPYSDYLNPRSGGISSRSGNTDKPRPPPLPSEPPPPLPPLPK

Take `NS(=O)(=O)c1ccc(Nc2ncc3cc4n(c3n2)C2(C=NN4)CCCCC2)cc1` [Compound 4, 4-((1′H-spiro[cyclohexane-1,4′-pyrimido[5′,4′:4,5]pyrrolo[2,1-c][1,2,4]triazin]-7′-yl)amino)benzenesulfonamide]: the IC50 against CDK6/Cyclin D3 amounted to 170 nM; against CDK7, 230 nM; on CDK9/Cyclin T1, 11 nM; on CDK4/Cyclin D1, 53 nM; on CDK2/Cyclin A, 1 nM; at CDK1/Cyclin B1 it was 89 nM. Further, the IC50 at CDK2/Cyclin E stood at 1 nM; against CDK3-CYCLIN-E, 5 nM.

Take `CN1N=CC2(CCCCC2)n2c1cc1cnc(Nc3ccc(S(N)(=O)=O)cc3)nc12` [Compound 5, 4-((1′-methyl-1′H-spiro[cyclohexane-1,4′-pyrimido[5′,4′:4,5]pyrrolo[2,1-c][1,2,4]triazin]-7′-yl)amino)benzenesulfonamide]: the IC50 on CDK6/Cyclin D3 came out at 231 nM; on CDK7, 875 nM; against CDK9/Cyclin T1 it was 26 nM; against CDK4/Cyclin D1, 41 nM; against CDK2/Cyclin A it was 2 nM; against CDK1/Cyclin B1 it was 11 nM. The IC50 was 3 nM on CDK2/Cyclin E and 23 nM at CDK3-CYCLIN-E.

In the case of `NS(=O)(=O)c1ccc(Nc2ncc3cc4n(c3n2)C2(CCCCC2)C(=O)N[C@@H]4CF)cc1` [Compound 23, (S)-4-((6′-(fluoromethyl)-8′-oxo-7′,8′-dihydro-6′H-spiro[cyclohexane-1,9′-pyrazino[1′2′:1,5]pyrrolo[2,3-d]pyrimidin]-2′-yl)amino)benzenesulfonamide], the IC50 was 45 nM at CDK6/Cyclin D3; 682 nM on CDK7; 11 nM at CDK9/Cyclin T1; 19 nM against CDK4/Cyclin D1; 1 nM on CDK2/Cyclin A; 20 nM against CDK1/Cyclin B1. In addition, the IC50 at CDK2/Cyclin E stood at 1 nM; on CDK3-CYCLIN-E, 6 nM.

`CC1C(=O)Nc2cc3cnc(Nc4ccc(S(N)(=O)=O)cc4)nc3n2C12CCCCC2` (stereo not drawn) [Compound 42, 4-((8′-methyl-7′-oxo-7′,8′-dihydro-6′H-spiro[cyclohexane-1,9′-pyrrolo[1,5-a:2,3-d′]dipyrimidin]-2′-yl)amino)benzenesulfonamide]: the IC50 against CDK9/Cyclin T1 was determined as 6 nM; against CDK2/Cyclin A, 1 nM; on CDK1/Cyclin B1 it was 7 nM; against CDK2/Cyclin E it was 1 nM; on CDK3-CYCLIN-E, 10 nM.

In the case of `CC1C(=O)N(C)c2cc3cnc(Nc4ccc(S(N)(=O)=O)cc4)nc3n2C12CCCCC2` (stereo not drawn) [Compound 43, 4-((6′,8′-dimethyl-7′-oxo-7′,8′-dihydro-6′H-spiro[cyclohexane-1,9′-pyrrolo[1,5-a:2,3-d′]dipyrimidin]-2′-yl)amino)benzenesulfonamide], the half-inhibitory concentration (IC50) at CDK9/Cyclin T1 stood at 21 nM; on CDK2/Cyclin A, 4 nM; against CDK1/Cyclin B1, 33 nM; at CDK2/Cyclin E, 4 nM; at CDK3-CYCLIN-E, 29 nM.

As to `CC1=NNc2cc3cnc(Nc4ccc(S(N)(=O)=O)cc4)nc3n2C12CCCCC2` [Compound 45, 4-((3′-methyl-1′H-spiro[cyclohexane-1,4′-pyrimido[5′,4′:4,5]pyrrolo[2,1-c][1,2,4]triazin]-7′-yl)amino)benzenesulfonamide], the IC50 was more than 1000 nM at CDK6/Cyclin D3; more than 1000 nM on CDK7; 240 nM at CDK9/Cyclin T1; 436 nM on CDK4/Cyclin D1; 16 nM against CDK2/Cyclin A; 108 nM at CDK1/Cyclin B1. Also, the IC50 against CDK2/Cyclin E was 19 nM; at CDK3-CYCLIN-E, 73 nM.

For `CC1=NN(C)c2cc3cnc(Nc4ccc(S(N)(=O)=O)cc4)nc3n2C12CCCCC2` [Compound 46, 4-((1′,3′-dimethyl-1′H-spiro[cyclohexane-1,4′-pyrimido[5′,4′:4,5]pyrrolo[2,1-c][1,2,4]triazin]-7′-yl)amino)benzenesulfonamide], the IC50 against CDK6/Cyclin D3 is 83 nM; against CDK7 it was 723 nM; at CDK9/Cyclin T1 it was 9 nM; against CDK4/Cyclin D1, 22 nM; against CDK2/Cyclin A, 2 nM; on CDK1/Cyclin B1, 14 nM. Further, the IC50 worked out at 2 nM at CDK2/Cyclin E and 13 nM on CDK3-CYCLIN-E.

For the molecule `CN1CCN(S(=O)(=O)c2ccc(Nc3ncc4cc5n(c4n3)C3(CCCCC3)C(=O)NN5)cc2)CC1` [Compound 49, 7′-((4-((4-methylpiperazin-1-yl)sulfonyl)phenyl)amino)-1′,2′-dihydro-3′H-spiro[cyclohexane-1,4′-pyrimido[5′,4′:4,5]pyrrolo[2,1-c][1,2,4]triazin]-3′-one], the IC50 against CDK6/Cyclin D3 came out at 480 nM; on CDK7, 242 nM; on CDK9/Cyclin T1, 199 nM; against CDK4/Cyclin D1, 253 nM; against CDK2/Cyclin A it was 45 nM; against CDK1/Cyclin B1, 478 nM. For the same molecule, the IC50 against CDK2/Cyclin E was 10 nM; on CDK3-CYCLIN-E, 115 nM.

For `CN1CCN(S(=O)(=O)c2ccc(Nc3ncc4cc5n(c4n3)C3(CCCCC3)C(=O)NC5O)cc2)CC1` (stereo not drawn) [Compound 50, 6′-hydroxy-2′-((4-((4-methylpiperazin-1-yl)sulfonyl)phenyl)amino)-6′,7′-dihydro-8′H-spiro[cyclohexane-1,9′-pyrazino[1′,2′:1,5]pyrrolo[2,3-d]pyrimidin]-8′-one], the IC50 was 51 nM against CDK6/Cyclin D3; 118 nM at CDK7; 2 nM on CDK9/Cyclin T1; 113 nM at CDK4/Cyclin D1; 2 nM against CDK2/Cyclin A; 78 nM at CDK1/Cyclin B1. In addition, the IC50 on CDK2/Cyclin E is 4 nM; against CDK3-CYCLIN-E it was 28 nM.

As for `CNC(=O)Nc1ccc(Nc2ncc3cc4n(c3n2)C2(CCCCC2)C(=O)NN4)cc1` [Compound 68, 1-methyl-3-(4-((3′-oxo-2′,3′-dihydro-1′H-spiro[cyclohexane-1,4′-pyrimido[5′,4′:4,5]pyrrolo[2,1-c][1,2,4]triazin]-7′-yl)amino)phenyl)urea], the IC50 against CDK6/Cyclin D3 is more than 1000 nM; on CDK9/Cyclin T1, 284 nM; against CDK4/Cyclin D1, 595 nM; on CDK2/Cyclin A, 841 nM; at CDK1/Cyclin B1, more than 1000 nM; on CDK2/Cyclin E it was 349 nM.

Regarding `CC1C(=O)Nc2cc3cnc(Nc4ccc(C(=O)N5CCN(C)CC5)cc4)nc3n2C12CCCCC2` (stereo not drawn) [Compound 71, 8′-methyl-2′-((4-(4-methylpiperazine-1-carbonyl)phenyl)amino)-6′H-spiro[cyclohexane-1,9′-pyrrolo[1,5-a:2,3-d′]dipyrimidin]-7′(8′H)-one], the IC50 against CDK6/Cyclin D3 worked out at 15 nM; against CDK9/Cyclin T1, 9 nM; on CDK4/Cyclin D1, 9 nM; against CDK2/Cyclin A, 4 nM; against CDK1/Cyclin B1 it was 15 nM; against CDK2/Cyclin E, 3 nM.

`CS(=N)(=O)c1ccc(Nc2ncc3cc4n(c3n2)C2(CCCCC2)C(=O)NN4)cc1` (stereo not drawn) [Compound 79, 7′-((4-(S-methylsulfonimidoyl)phenyl)amino)-1′,2′-dihydro-3′H-spiro[cyclohexane-1,4′-pyrimido[5′,4′:4,5]pyrrolo[2,1-c][1,2,4]triazin]-3′-one]: the IC50 against CDK6/Cyclin D3 is 291 nM; against CDK9/Cyclin T1 it was 89 nM; on CDK4/Cyclin D1 it was 172 nM; at CDK2/Cyclin A, 16 nM; at CDK1/Cyclin B1, 146 nM; against CDK2/Cyclin E, 5 nM.

As for `Nc1ccc(S(=O)(=O)Nc2ncc3cc4n(c3n2)C2(CCCCC2)C(=O)NN4)cc1` [Compound 84, 4-amino-N-(3′-oxo-2′,3′-dihydro-1′H-spiro[cyclohexane-1,4′-pyrimido[5′,4′:4,5]pyrrolo[2,1-c][1,2,4]triazin]-7′-yl)benzenesulfonamide], the IC50 on CDK6/Cyclin D3 is more than 1000 nM; at CDK9/Cyclin T1 it was more than 1000 nM; at CDK4/Cyclin D1, more than 1000 nM; against CDK2/Cyclin A it was 571 nM; at CDK1/Cyclin B1 it was more than 1000 nM; against CDK2/Cyclin E it was 207 nM.

Take `Nc1ccc(S(=O)(=O)Nc2ncc3cc4n(c3n2)C2(CCCCC2)CNC4=O)cc1` [Compound 91, 4-amino-N-(6′-oxo-7′,8′-dihydro-6′H-spiro[cyclohexane-1,9′-pyrazino[1′,2′:1,5]pyrrolo[2,3-d]pyrimidin]-2′-yl)benzenesulfonamide]: the IC50 is 920 nM against CDK6/Cyclin D3; 183 nM on CDK9/Cyclin T1; 361 nM at CDK4/Cyclin D1; 322 nM against CDK2/Cyclin A; more than 1000 nM against CDK1/Cyclin B1; 287 nM against CDK2/Cyclin E.

The values above are taken from patent US20240150369A1, “CYCLIN-DEPENDENT KINASE INHIBITING COMPOUNDS FOR THE TREATMENT OF MEDICAL DISORDERS” (G1 Therapeutics, Inc., priority 2020, published 2024).
